Patent US20230066011A1, “PYRROLOPYRIMIDINE DERIVATIVE, AND PHARMACEUTICAL COMPOSITION FOR PREVENTING OR TREATING PROTEIN KINASE-RELATED DISEASE COMPRISING SAME AS ACTIVE INGREDIENT” (VORONOI CO., LTD., priority 2019, published 2023)

Columns and labels:
LRRK2 (G2019S) = LRRK2 (G2019S) (Homo sapiens, UniProt Q5S007, G2019S); assay: LRRK2 G2019S enzyme inhibition, ADP-Glo kinase assay; type: biochemical; parameters: purchased SignalChem L10-12GG; conditions: ATP 25 μM
Procedure, shortened: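 Purified human LRRK2 G2019S (16 ng) with 25 μM ATP and 0.2 μg substrate, 2 h at 25° C. in Tris-HCl pH 7.4, MgCl2, BSA, DTT buffer; compounds at 12 final concentrations, 50 μM down to 0.000001024 μM. ADP-Glo luminescence versus solvent control gave IC50.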

human DYRK1A and tau = assay: Inhibition of tau phosphorylation, ClariCELL Kinase Cell-Based Assay, HEK 293 cells expressing human DYRK1A and tau; conditions: for inhibition at 1 µM: HEK293, read-out: % inhibition at 1 uM, tau phosphorylation, compound 1 uM; for inhibition at 0.25 µM / inhibition at 0.5 µM: HEK293, tau phosphorylation; for inhibition at 0.25 µM: compound 0.25 uM; for inhibition at 0.5 µM: compound 0.5 uM
Procedure, shortened: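 Cell-based service assay: HEK 293 cells transiently expressing human DYRK1A and tau were treated with compound and lysed. Released tau was plate-captured and its phosphorylation quantified by ELISA with a phospho-tau-specific antibody.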

human GST-CLK1 = target: T1, human GST-CLK1 (Homo sapiens, UniProt P49759); assay: GST-CLK1 enzyme inhibition, ADP-Glo kinase assay; type: biochemical; conditions: ATP 10 μM, GST-CLK1 129-end
T1 construct: purified human GST-CLK1 (129-end, SignalChem) enzyme; purchased SignalChem
Procedure, shortened: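 Human GST-CLK1 (129-end, 3 ng) reacted with substrate and 10 μM ATP for 1 h at 25° C in 40 mM Tris-HCl pH 7.4, 20 mM MgCl2, 0.5 mg/mL BSA, 50 μM DTT. ADP-Glo luminescence was normalised to solvent control; IC50 (nM) from 3 data sets.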

MDA-MB-468 cell line = assay: Inhibition of proliferation of MDA-MB-468 cancer cells (Cell Titer-Glo); type: cell-based; conditions: Homo sapiens, MDA-MB-468, 72 hours
Procedure, shortened: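 Cells seeded at 2,000/well and exposed 72 h to 11 concentrations of compound (3-fold dilutions, final 10.000000 down to 0.000169 μM) in DMEM or RPMI. Viability read by Cell Titer-Glo luminescence after 10 min at room temperature; GI50 calculated from luminescence.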

Chain of LRRK2 (G2019S) (Q5S007 970-2527 G2019S limits assumed): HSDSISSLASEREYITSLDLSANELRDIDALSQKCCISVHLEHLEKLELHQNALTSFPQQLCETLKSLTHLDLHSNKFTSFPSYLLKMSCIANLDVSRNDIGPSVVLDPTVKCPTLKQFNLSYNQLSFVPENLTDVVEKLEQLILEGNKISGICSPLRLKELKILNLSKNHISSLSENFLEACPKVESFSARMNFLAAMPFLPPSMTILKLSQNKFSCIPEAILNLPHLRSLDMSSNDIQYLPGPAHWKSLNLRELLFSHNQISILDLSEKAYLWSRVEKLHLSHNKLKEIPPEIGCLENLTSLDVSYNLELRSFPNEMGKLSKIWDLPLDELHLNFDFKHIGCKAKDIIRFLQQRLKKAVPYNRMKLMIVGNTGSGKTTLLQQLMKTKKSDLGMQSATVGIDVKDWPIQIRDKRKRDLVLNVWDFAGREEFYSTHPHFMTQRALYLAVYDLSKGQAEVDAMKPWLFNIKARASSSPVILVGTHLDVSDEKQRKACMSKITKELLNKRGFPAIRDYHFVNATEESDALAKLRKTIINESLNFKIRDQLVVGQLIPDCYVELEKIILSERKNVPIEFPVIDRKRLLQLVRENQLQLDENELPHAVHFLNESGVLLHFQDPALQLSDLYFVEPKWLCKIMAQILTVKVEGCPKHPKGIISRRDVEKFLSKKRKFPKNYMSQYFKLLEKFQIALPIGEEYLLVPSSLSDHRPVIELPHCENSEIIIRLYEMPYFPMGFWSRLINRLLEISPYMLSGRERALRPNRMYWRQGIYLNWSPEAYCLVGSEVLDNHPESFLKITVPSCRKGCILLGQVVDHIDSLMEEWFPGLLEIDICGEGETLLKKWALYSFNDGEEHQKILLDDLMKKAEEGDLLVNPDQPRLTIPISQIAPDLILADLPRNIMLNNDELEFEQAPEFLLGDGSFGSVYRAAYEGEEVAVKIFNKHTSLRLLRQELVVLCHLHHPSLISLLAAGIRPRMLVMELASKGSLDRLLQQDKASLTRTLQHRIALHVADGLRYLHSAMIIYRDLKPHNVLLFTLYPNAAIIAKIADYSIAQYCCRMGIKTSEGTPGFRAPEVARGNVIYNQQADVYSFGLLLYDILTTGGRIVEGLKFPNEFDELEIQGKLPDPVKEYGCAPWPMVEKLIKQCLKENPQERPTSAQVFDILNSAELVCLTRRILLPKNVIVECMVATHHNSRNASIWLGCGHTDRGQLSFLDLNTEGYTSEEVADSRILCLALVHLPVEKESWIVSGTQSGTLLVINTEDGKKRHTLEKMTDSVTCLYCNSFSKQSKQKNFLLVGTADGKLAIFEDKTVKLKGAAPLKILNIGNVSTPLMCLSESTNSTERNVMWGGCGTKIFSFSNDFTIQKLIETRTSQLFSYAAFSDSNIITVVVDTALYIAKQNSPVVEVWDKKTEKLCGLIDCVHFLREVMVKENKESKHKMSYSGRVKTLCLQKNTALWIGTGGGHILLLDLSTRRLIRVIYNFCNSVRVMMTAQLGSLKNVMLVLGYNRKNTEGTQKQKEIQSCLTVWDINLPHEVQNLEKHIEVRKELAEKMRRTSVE
T1 sequence (P49759 129-484 limits assumed): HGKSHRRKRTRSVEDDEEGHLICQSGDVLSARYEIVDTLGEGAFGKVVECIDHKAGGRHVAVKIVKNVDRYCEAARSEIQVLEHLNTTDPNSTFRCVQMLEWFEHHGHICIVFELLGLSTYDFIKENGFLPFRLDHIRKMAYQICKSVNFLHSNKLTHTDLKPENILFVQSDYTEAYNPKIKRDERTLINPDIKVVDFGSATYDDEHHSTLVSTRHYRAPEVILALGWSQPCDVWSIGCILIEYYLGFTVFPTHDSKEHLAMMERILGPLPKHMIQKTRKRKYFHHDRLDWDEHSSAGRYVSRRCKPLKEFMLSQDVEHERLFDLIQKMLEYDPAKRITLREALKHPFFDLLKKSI

Row | IC50 (LRRK2 (G2019S)) [nM] | IC50 (human GST-CLK1) [nM] | GI50 (MDA-MB-468 cell line) [nM] | Structure (SMILES) | inhibition at 1 µM (human DYRK1A and tau) [%] | inhibition at 0.25 µM (human DYRK1A and tau) [%] | inhibition at 0.5 µM (human DYRK1A and tau) [%]
1 | < 100 | < 100 | 301 to 1000 | CCCNc1nc(Nc2ccc(C(=O)N3CCC(N4CCOCC4)CC3)c3c2OCC3)nc2[nH]cc(C(F)(F)F)c12 [Example 446, (4-morpholino-piperidin-1-yl)(7-((4-(propylamino)-5-(trifluoromethyl)-7H-pyrrolo[2,3-d]pyrimidin-2-yl)amino)-2,3-dihydrobenzo-furan-4-yl)methanone] | 84.9 | 25.7 | 61.1
2 | < 100 | < 100 | 301 to 1000 | CCNc1nc(Nc2ccc(C(=O)N3CCC(N4C[C@@H]5C[C@H]4CO5)CC3)c3c2OCC3)nc2[nH]cc(C(F)(F)F)c12 [Example 468] | 92.5 | 50.3 | 75.4
